Assay results as given in patent US10085448B2, “Azoline compounds substituted by a carbocyclic condensed ring system” (BASF SE, priority 2014, dated 2018).
Read-outs that look alike come from different tables or passages of the source.

Legend:
Type in all cases: in vivo
[1] = system: Orchid Thrips (Dichromothrips corbetti); experiment: Orchid thrips floral-immersion test; conditions: 72 h, read-out: mortality in comparison with untreated controls
Description: B.7 Orchid Thrips (Dichromothrips corbetti)
Dichromothrips corbetti adults used for bioassay were obtained from a colony maintained continuously under laboratory conditions. For testing purposes, the test compound is diluted in a 1:1 mixture of acetone:water (vol:vol), plus Kinetic HV at a rate of 0.01% v/v.
Thrips potency of each compound was evaluated by using a floral-immersion technique. All petals of individual, intact orchid flowers were dipped into treatment solution and allowed to dry in Petri dishes. Treated petals were placed into individual re-sealable plastic along with about 20 adult thrips. All test arenas were held under continuous light and a temperature of about 28° C. for duration of the assay. After 3 days, the numbers of live thrips were counted on each petal. The percent mortality was recorded 72 hours after treatment.

[2] = system: Vetch Aphid (Megoura viciae); experiment: Vetch aphid leaf disk test; conditions: foliar, 120 h, read-out: mortality in comparison with untreated controls
Description: B.3 Vetch Aphid (Megoura viciae)
For evaluating control of vetch aphid (Megoura viciae) through contact or systemic means the test unit consisted of 24-well-microtiter plates containing broad bean leaf disks.
The compounds were formulated using a solution containing 75% v/v water and 25% v/v DMSO. Different concentrations of formulated compounds were sprayed onto the leaf disks at 2.5 μl, using a custom built micro atomizer, at two replications.
After application, the leaf disks were air-dried and 5-8 adult aphids placed on the leaf disks inside the microtiter plate wells. The aphids were then allowed to suck on the treated leaf disks and incubated at about 23±1° C. and about 50±5% relative humidity for 5 days. Aphid mortality and fecundity was then visually assessed.

[3] = system: Red Spider Mite (Tetranychus kanzawai); experiment: Red spider mite sprayed cowpea bean test; conditions: 72 h, read-out: mortality in comparison with untreated controls
Description: B.9 Red Spider Mite (Tetranychus kanzawai)
The active compound was dissolved at the desired concentration in a mixture of 1:1 (vol:vol) distilled water: acetone. Add surfactant (Kinetic HV) was added at a rate of 0.01% (vol/vol).The test solution was prepared at the day of use.
Potted cowpea beans of 4-5 days of age were cleaned with tap water and sprayed with 1-2 ml of the test solution using air driven hand atomizer. The treated plants were allowed to air dry and afterwards inoculated with 30 or more mites by clipping a cassava leaf section from rearing population. Treated plants were placed inside a holding room at about 25-27° C. and about 50-60% relative humidity. Percent mortality was assessed 72 hours after treatment.

[4] = system: Mediterranean Fruitfly (Ceratitis capitata); experiment: Mediterranean fruitfly insect diet test; conditions: 120 h, read-out: mortality in comparison with untreated controls
Description: B.6 Mediterranean Fruitfly (Ceratitis capitata)
For evaluating control of Mediterranean fruitfly (Ceratitis capitata) the test unit consisted of microtiter plates containing an insect diet and 50-80 C. capitata eggs. The compounds were formulated using a solution containing 75% v/v water and 25% v/v DMSO. Different concentrations of formulated compounds were sprayed onto the insect diet at 5 μl, using a custom built micro atomizer, at two replications.
(§1) After application, microtiter plates were incubated at about 28±1° C. and about 80±5% relative humidity for 5 days. Egg and larval mortality was then visually assessed.

[5] = system: Boll Weevil (Anthonomus grandis); experiment: Boll weevil insect diet test; conditions: 120 h, read-out: mortality in comparison with untreated controls
Description: B.5 Boll Weevil (Anthonomus grandis)
For evaluating control of boll weevil (Anthonomus grandis) the test unit consisted of 96-well-microtiter plates containing an insect diet and 5-10 A. grandis eggs.
The compounds were formulated using a solution containing 75% v/v water and 25% v/v DMSO. Different concentrations of formulated compounds were sprayed onto the insect diet at 5 μl, using a custom built micro atomizer, at two replications.
After application, microtiter plates were incubated at about 25±1° C. and about 75±5% relative humidity for 5 days. Egg and larval mortality was then visually assessed.

[6] = system: Tobacco Budworm (Heliothis virescens); experiment: Tobacco budworm insect diet test; conditions: 120 h, read-out: mortality in comparison with untreated controls
Description: B.4 Tobacco Budworm (Heliothis virescens)
For evaluating control of tobacco budworm (Heliothis virescens) the test unit consisted of 96-well-microtiter plates containing an insect diet and 15-25 H. virescens eggs.
The compounds were formulated using a solution containing 75% v/v water and 25% v/v DMSO. Different concentrations of formulated compounds were sprayed onto the insect diet at 10 μl, using a custom built micro atomizer, at two replications.
as §1

[7] = system: Green Peach Aphid (Myzus persicae); experiment: Green peach aphid systemic artificial diet test; conditions: 72 h, read-out: mortality in comparison with untreated controls
Excerpt: B.2 Green Peach Aphid (Myzus persicae)
For evaluating control of green peach aphid (Myzus persicae) through systemic means the test unit consisted of 96-well-microtiter plates containing liquid artificial diet under an artificial membrane.
The compounds were formulated using a solution containing 75% v/v water and 25% v/v DMSO. Different concentrations of formulated compounds were pipetted into the aphid diet, using a custom built pipetter, at two replications.
After application, 5-8 adult aphids were placed on the artificial membrane inside the microtiter plate wells. The aphids were then allowed to suck on the treated aphid diet and incubated at about 23±1° C. and about 50±5% relative humidity for 3 days. Aphid mortality and fecundity was then visually assessed.

[8] = system: Diamond Back Moth (Plutella xylostella); experiment: Diamond back moth leaf-dip test; conditions: read-out: mortality in comparison with untreated controls
Description: B.1 Diamond Back Moth (Plutella xylostella)
The active compound was dissolved at the desired concentration in a mixture of 1:1 (vol:vol) distilled water: aceteone. Surfactant (Kinetic HV) was added at a rate of 0.01% (vol/vol).The test solution was prepared at the day of use.
Leaves of cabbage were dipped in test solution and air-dried. Treated leaves were placed in petri dishes lined with moist filter paper and inoculated with ten 3rd instar larvae. Mortality was recorded 72 hours after treatment. Feeding damages were also recorded using a scale of 0-100%.

[9] = system: Rice Green Leafhopper (Nephotettix virescens); experiment: Rice green leafhopper sprayed rice seedling test; conditions: 72 h, read-out: mortality in comparison with untreated controls
Description: B.8 Rice Green Leafhopper (Nephotettix virescens)
Rice seedlings were cleaned and washed 24 hours before spraying. The active compounds were formulated in 1:1 acetone:water (vol:vol), and 0.01% vol/vol surfactant (Kinetic HV) was added. Potted rice seedlings were sprayed with 5-6 ml test solution, air dried, covered with Mylar cages and inoculated with 10 adults. Treated rice plants were kept at about 28-29° C. and relative humidity of about 50-60%. Percent mortality was recorded after 72 hours.

[10] = system: Green Soldier Stink Bug (Nezara viridula); experiment: Green soldier stink bug soybean pod spray test; conditions: 120 h, read-out: mortality in comparison with untreated controls
Description: B.11 Green Soldier Stink Bug (Nezara viridula)
(§2) The active compound was dissolved at the desired concentration in a mixture of 1:1 (vol:vol) distilled water: acetone. Surfactant (Kinetic HV) was added at a rate of 0.01% (vol/vol).The test solution was prepared at the day of use.
Soybean pods were placed in glass Petri dishes lined with moist filter paper and inoculated with ten late 3rd instar N. viridula. Using a hand atomizer, approximately 2 ml solution is sprayed into each Petri dish. Assay arenas were kept at about 25° C. Percent mortality was recorded after 5 days.

[11] = system: Southern Armyworm (Spodoptera eridania); experiment: Southern armyworm sprayed lima bean test; conditions: 96 h, read-out: mortality in comparison with untreated controls
Description: B.10 Southern Armyworm (Spodoptera eridania)
The active compounds were formulated in cyclohexanone as a 10,000 ppm solution supplied in tubes. The tubes were inserted into an automated electrostatic sprayer equipped with an atomizing nozzle and they served as stock solutions for which lower dilutions were made in 50% acetone:50% water (v/v). A nonionic surfactant (Kinetic®) was included in the solution at a volume of 0.01% (v/v).
Lima bean plants (variety Sieva) were grown 2 plants to a pot and selected for treatment at the 1st true leaf stage. Test solutions were sprayed onto the foliage by an automated electrostatic plant sprayer equipped with an atomizing spray nozzle. The plants were dried in the sprayer fume hood and then removed from the sprayer. Each pot was placed into perforated plastic bags with a zip closure. About 10 to 11 armyworm larvae were placed into the bag and the bags zipped closed. Test plants were maintained in a growth room at about 25° C. and about 20-40% relative humidity for 4 days, avoiding direct exposure to fluorescent light (24 hour photoperiod) to prevent trapping of heat inside the bags. Mortality and reduced feeding were assessed 4 days after treatment, compared to untreated control plants.

[12] = system: Neotropical Brown Stink Bug (Euschistus heros); experiment: Neotropical brown stink bug soybean pod spray test; conditions: 120 h, adults on soybean pods, sprayed, after 5 days, read-out: mortality in comparison with untreated controls
Description: B.12 Neotropical Brown Stink Bug (Euschistus heros)
as §2
Soybean pods were placed in microwavable plastic cups and inoculated with ten adult stage E. heros. Using a hand atomizer, approximately 1 ml solution is sprayed into each cup, insects and food present. A water source was provided (cotton wick with water). Each treatment was replicated 2-fold. Assay arenas were kept at about 25° C. Percent mortality was recorded after 5 days.

[13] = 2500 ppm, egg and larval mortality on sprayed insect diet, 5 days

O=C(NCC(F)(F)F)N/N=C/c1ccc(C2=NOC(c3cc(Cl)c(F)c(Cl)c3)(C(F)(F)F)C2)c2c1CCC2 (stereo not drawn) [Compound 2-3, 1-[(E)-[7-[5-(3,5-Dichloro-4-fluoro-phenyl)-5-(trifluoromethyl)-4H-isoxazol-3-yl]indan-4-yl]methyleneamino]-3-(2,2,2-trifluoroethyl)urea]
≥ 75%: mortality at 300 ppm [1] | mortality at 2500 ppm [2] | mortality at 300 ppm [3] | mortality at 2500 ppm [4] | mortality at 2500 ppm [5] | mortality at 2500 ppm [6] | mortality at 2500 ppm [7] | mortality at 300 ppm ([8]; in Brassica oleracea, 72 h)

Fc1c(Cl)cc(C2(C(F)(F)F)CC(c3ccc(-n4cncn4)c4c3CCC4)=NO2)cc1Cl (stereo not drawn) [Compound 4-1, 5-(3,5-Dichloro-4-fluoro-phenyl)-3-[7-(1,2,4-triazol-1-yl)indan-4-yl]-5-(trifluoromethyl)-4H-isoxazole]
≥ 75%: mortality at 300 ppm [1] | mortality at 300 ppm [9] | mortality at 300 ppm ([8]; in Brassica oleracea, 72 h)

CC(=O)NCc1ccc(C2=NOC(c3cc(Cl)c(F)c(Cl)c3)(C(F)(F)F)C2)c2c1CCC2 (stereo not drawn) [Compound 1-4, N-[[7-[5-(3,5-Dichloro-4-fluoro-phenyl)-5-(trifluoromethyl)-4H-isoxazol-3-yl]indan-4-yl]methyl]acetamide]
≥ 75%: mortality at 300 ppm [10] | mortality at 300 ppm [1] | mortality at 2500 ppm [2] | mortality at 300 ppm [9] | mortality at 300 ppm [3] | mortality at 2500 ppm [4] | mortality at 10 ppm [11] | mortality at 2500 ppm [5] | mortality at 100 ppm [12] | mortality at 2500 ppm [6] | mortality at 2500 ppm [7] | mortality at 300 ppm ([8]; in Brassica oleracea, 72 h)

O=C(NCC(F)(F)F)N/N=C/c1ccc(C2=NCC(c3cc(Cl)cc(Cl)c3)(C(F)(F)F)C2)c2c1CCC2 (stereo not drawn) [Compound 3-1, 1-[(E)-[7-[3-(3,5-Dichlorophenyl)-3-(trifluoromethyl)-2,4-dihydropyrrol-5-yl]indan-4-yl]methyleneamino]-3-(2,2,2-trifluoroethyl)urea]
≥ 75%: mortality at 2500 ppm ([2]; 2500 ppm, adult aphids on sprayed broad bean leaf disks, 5 days) | mortality at 2500 ppm [4, 13] | mortality at 10 ppm ([11]; 10 ppm, larvae on sprayed lima bean plants, 4 days after treatment) | mortality at 2500 ppm [5, 13] | mortality at 2500 ppm [6, 13] | mortality at 2500 ppm ([7]; 2500 ppm, adult aphids on treated artificial diet, 3 days) | mortality at 300 ppm ([8]; 300 ppm, cabbage leaves dipped, 3rd instar larvae, 72 hours after treatment)
